From patent US4737506A, “Anti-arteriosclerotic pyridyl or imidazolyl derivatives of carbonyloxyalkyl hantzsch esters” (Kowa Co., Ltd., priority 1984, dated 1988) come the findings set out here.

In this test the test system is thromboxane B2 (TXB2) formation. The test is described as follows: Percent inhibition against thromboxane B2 (TXB2) formation in collagen-stimulated PRP from mice after oral administration (RIA). Type of test: in vivo, ddY male mouse. Particulars: Mus musculus, blood collected 1 hour later, 12.5 μg/ml collagen, TXB2 5 minutes later; for inhibition at 30 mg/kg: 30 mg/kg oral; for inhibition at 100 mg/kg: 100 mg/kg oral. As for the experimental part: Using a ddY male mouse having a body weight of 35-40 g, one of the representative compounds of this invention was administered orally. One hour later, citrated blood was collected. PRP (platelet-rich plasma) was separated. Aggregation of platelets by the addition of 12.5 μg/ml of collagen was observed by an aggregometer. The amount of thromboxane B2 (a stable metabolite of thromboxane A2) formed 5 minutes later in the liquid reaction mixture was measured by the RIA method. Results are shown in Table 1, in terms of percent inhibition against the formation of thromboxane B2 (TXB2).

Turning to `CCOC(=O)C1=C(C)NC(C)=C(C(=O)OCCOC(=O)c2ccc(OCCn3ccnc3)cc2)C1c1cccc([N+](=O)[O-])c1` (stereo not shown) [Ex. 2, 3-Ethyl 5-[2-[4-[2-(1-imidazolyl)-ethoxy]-benzoyloxy]-ethyl]2,6-dimethyl-4-(3-nitrophenyl)-1,4-dihydropyridine-3,5-dicarboxylate], the inhibition at 30 mg/kg came out at 42% and the inhibition at 100 mg/kg was determined as 72%.

As to `CCOC(=O)C1=C(C)NC(C)=C(C(=O)OCCCOC(=O)c2ccc(OCCn3ccnc3)cc2)C1c1cccc([N+](=O)[O-])c1` (stereo not shown) [Ex. 6, 3-Ethyl 5-[3-[4-[2-(1-imidazolyl)ethoxyl]benzoyloxy]propyl]2,6-dimethyl-4-(3-nitrophenyl)-1,4-dihydropyridine-3,5-dicarboxylate], the inhibition at 30 mg/kg came to 74% and testing at 100 mg/kg gave an inhibition of 95%.

In the case of `COC(=O)C1=C(C)NC(C)=C(C(=O)OCCOC(=O)C=Cc2ccc(Cn3ccnc3)cc2)C1c1cccc([N+](=O)[O-])c1` (stereo not shown) [Ex. 8, 3-Methyl 5-[2-[3-[4-(1-imidazolylmethyl)-phenyl]acryloyloxy]ethyl]2,6-dimethyl-4-(3-nitrophenyl)-1,4-dihydropyridine-3,5-dicarboxylate], 30 mg/kg produced 60% inhibition and the inhibition at 100 mg/kg was found to be 72%.

With `COC(=O)C1=C(C)NC(C)=C(C(=O)OCCOC(=O)C=Cc2ccc(Cn3ccnc3)cc2)C1c1ccccc1F` (stereo not shown) [Ex. 14, 3-Methyl 5-[2-[3-[4-(1-imidazolylmethyl)phenyl]acryloyloxy]ethyl]2,6-dimethyl-4-(2-fluorophenyl)-1,4-dihydropyridine-3,5-dicarboxylate], the inhibition at 30 mg/kg came to 52% and the inhibition at 100 mg/kg stood at 83%.

Regarding `COC(=O)C1=C(C)NC(C)=C(C(=O)OCCOC(=O)c2ccc(OCCn3ccnc3)cc2)C1c1cccc(Cl)c1Cl` (stereo not shown) [Ex. 16, 3-Methyl 5-[2-[4-[2-(1-imidazolyl)ethoxy]-benzoyloxy]ethyl]2,6-dimethyl-4-(2,3-dichlorophenyl)-1,4-dihydropyridine-3,5-dicarboxylate], 30 mg/kg produced 75% inhibition and at 100 mg/kg the inhibition was 94%.
